Laboratory results reported in PubChem BioAssay AID248 (DTP/NCI, 2004).
Where “and” joins values, the source holds several entries; their conditions need not be identical. Identical values can stand only once. Inconclusive results and toxic doses are left out.

Tested on: L1210 leukemia ip in BDF1 mice, survival T/C
Test: NCI In Vivo Anticancer Drug Screen. Data for tumor model L1210 Leukemia (intraperitoneal) in B6D2F1 (BDF1) mice
Conditions: endpoint: mean survival time, higher = longer survival
Outline: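 Mice bearing the transplanted tumor received compound or vehicle. Survival of the treated group was divided by that of the vehicle-treated control group to give the ratio.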

[1] = dose: 100.0 mg/kg/injection, schedule: Q04DX002 (ip), vehicle: saline
[2] = dose: 100.0 mg/kg/injection, schedule: Q01DX009 (ip), vehicle: saline
[3] = dose: 200.0 mg/kg/injection, schedule: Q01DX009 (ip), vehicle: saline
[4] = dose: 400.0 mg/kg/injection, schedule: Q01DX009 (ip), vehicle: saline
[5] = dose: 50.0 mg/kg/injection, schedule: Q01DX009 (ip), vehicle: saline
[6] = dose: 100.0 mg/kg/injection, schedule: Q01DX001 (ip), vehicle: saline
[7] = dose: 200.0 mg/kg/injection, schedule: Q01DX001 (ip), vehicle: saline
[8] = dose: 100.0 mg/kg/injection, schedule: Q01DX009 (ip), vehicle: Klucel (hydroxypropylcellulose) (HPC)
[9] = dose: 200.0 mg/kg/injection, schedule: Q01DX009 (ip), vehicle: Klucel (hydroxypropylcellulose) (HPC)
[10] = dose: 400.0 mg/kg/injection, schedule: Q01DX009 (ip), vehicle: Klucel (hydroxypropylcellulose) (HPC)
[11] = dose: 100.0 mg/kg/injection, schedule: Q04DX003 (ip), vehicle: saline with Tween-80
[12] = dose: 200.0 mg/kg/injection, schedule: Q04DX003 (ip), vehicle: saline with Tween-80
[13] = dose: 400.0 mg/kg/injection, schedule: Q04DX003 (ip), vehicle: saline with Tween-80
[14] = dose: 50.0 mg/kg/injection, schedule: Q01DX001 (ip), vehicle: Klucel (hydroxypropylcellulose) (HPC)
[15] = dose: 100.0 mg/kg/injection, schedule: Q01DX001 (ip), vehicle: Klucel (hydroxypropylcellulose) (HPC)
[16] = dose: 100.0 mg/kg/injection, schedule: Q04DX003 (ip), vehicle: Klucel (hydroxypropylcellulose) (HPC)
[17] = dose: 200.0 mg/kg/injection, schedule: Q04DX003 (ip), vehicle: Klucel (hydroxypropylcellulose) (HPC)
[18] = dose: 400.0 mg/kg/injection, schedule: Q04DX003 (ip), vehicle: Klucel (hydroxypropylcellulose) (HPC)
[19] = dose: 50.0 mg/kg/injection, schedule: Q01DX009 (ip), vehicle: saline with Tween-80
[20] = dose: 100.0 mg/kg/injection, schedule: Q01DX009 (ip), vehicle: saline with Tween-80
[21] = dose: 200.0 mg/kg/injection, schedule: Q01DX009 (ip), vehicle: saline with Tween-80
[22] = dose: 400.0 mg/kg/injection, schedule: Q01DX009 (ip), vehicle: saline with Tween-80
[23] = dose: 200.0 mg/kg/injection, schedule: Q01DX001 (ip), vehicle: Klucel (hydroxypropylcellulose) (HPC)
[24] = dose: 25.0 mg/kg/injection, schedule: Q01DX009 (ip), vehicle: Klucel (hydroxypropylcellulose) (HPC)
[25] = dose: 50.0 mg/kg/injection, schedule: Q01DX009 (ip), vehicle: Klucel (hydroxypropylcellulose) (HPC)

For `COCN1CCN(COC)C1=O`, the T/C [1] was 105 % of control, the T/C (dose: 200.0 mg/kg/injection, schedule: Q04DX002 (ip), vehicle: saline) was 108 % of control and the T/C (dose: 400.0 mg/kg/injection, schedule: Q04DX002 (ip), vehicle: saline) was 122 % of control.

In the case of `CC1=CC(C)(C)Nc2ccccc21`, the T/C [2] was 118 % of control, the T/C (dose: 100.0 mg/kg/injection, schedule: Q04DX003 (ip), vehicle: saline) was 106 % of control and the T/C [3] was 103 % of control. For the same compound, the T/C (dose: 200.0 mg/kg/injection, schedule: Q04DX003 (ip), vehicle: saline) was 101 % of control, the T/C [4] was 116 % of control and the T/C (dose: 400.0 mg/kg/injection, schedule: Q04DX003 (ip), vehicle: saline) was 91 % of control.

In the case of `CC(C)(C)C(=O)c1nn[nH]n1`, the T/C [5] was 91 % of control, the T/C [6] was 104 % of control and the T/C [2] was 98 % of control. For the same compound, the T/C [7] was 102 % of control.

In the case of `O=c1cc(O)nc[nH]1`, the T/C (dose: 220.0 mg/kg/injection, schedule: Q01DX Z (oral), vehicle: methylcellulose (MC)) was 105 % of control, the T/C (dose: 330.0 mg/kg/injection, schedule: Q01DX Z (oral), vehicle: methylcellulose (MC)) was 100 % of control and the T/C (dose: 500.0 mg/kg/injection, schedule: Q01DX Z (oral), vehicle: methylcellulose (MC)) was 95 % of control.

For `Cc1ccccc1N=Nc1c(O)n(-c2ccc(Br)cc2)c(=S)n(-c2ccccc2)c1=O`, the T/C (dose: 37.5 mg/kg/injection, schedule: Q01DX001 (ip), vehicle: Klucel (hydroxypropylcellulose) (HPC)) was 101 % of control, the T/C (dose: 75.0 mg/kg/injection, schedule: Q01DX001 (ip), vehicle: Klucel (hydroxypropylcellulose) (HPC)) was 101 % of control and the T/C (dose: 150.0 mg/kg/injection, schedule: Q01DX001 (ip), vehicle: Klucel (hydroxypropylcellulose) (HPC)) was 101 % of control.

For `CC(C)CCCCCOC(N)=O`, the T/C [8] was 96 % of control, the T/C [9] was 103 % of control and the T/C [10] was 102 % of control.

With `O=c1cc(CNc2ccc(Cl)cc2)[nH]c(=O)[nH]1` the T/C [11] was 98 % of control, the T/C [12] was 101 % of control and the T/C [13] was 95 % of control.

`COC(=O)c1ccc(Cl)c(NN)c1` was tested, and the T/C [11] was 100 % of control, the T/C [12] was 100 % of control and the T/C [13] was 105 % of control.

For `CC1(C)N=C(N)N=C(N)N1c1cccc(OCCOc2ccccc2N)c1`, the T/C (dose: 25.0 mg/kg/injection, schedule: Q01DX001 (ip), vehicle: Klucel (hydroxypropylcellulose) (HPC)) was 101 % of control, the T/C [14] was 101 % of control and the T/C [15] was 98 % of control.

In the case of `O=C(O)CCCCCNC(=O)C(F)(F)F`, the T/C (dose: 100.0 mg/kg/injection, schedule: Q04DX003 (ip), vehicle: other) was 94 % of control, the T/C (dose: 200.0 mg/kg/injection, schedule: Q04DX003 (ip), vehicle: other) was 103 % of control and the T/C (dose: 400.0 mg/kg/injection, schedule: Q04DX003 (ip), vehicle: other) was 87 % of control.

With `O=NN(CCCl)C(=O)NC1CS(=O)(=O)CS(=O)(=O)C1` the T/C (dose: 6.25 mg/kg/injection, schedule: Q01DX001 (ip), vehicle: other) was 193 % of control, the T/C (dose: 12.5 mg/kg/injection, schedule: Q01DX001 (ip), vehicle: other) was 296 % of control and the T/C (dose: 25.0 mg/kg/injection, schedule: Q01DX001 (ip), vehicle: other) was 322 % of control. The T/C (dose: 50.0 mg/kg/injection, schedule: Q01DX001 (ip), vehicle: other) was 252 % of control and the T/C (dose: 75.0 mg/kg/injection, schedule: Q01DX001 (ip), vehicle: other) was 117 % of control.

With `CCOC(=O)C(NC(C)=O)C(=O)OCC` the T/C [8] was 103 % of control, the T/C [16] was 107 % of control and the T/C [9] was 105 % of control. The T/C [17] was 107 % of control, the T/C [10] was 107 % of control and the T/C [18] was 106 % of control.

With `CC[N+](C)(CC)CC1CC(C)OC1=O` (stereo not drawn) the T/C [5] was 95 % of control, the T/C [2] was 109 % of control and the T/C [3] was 98 % of control.

In the case of `O=C(Nc1cccc2ccccc12)O/N=C/c1ccccn1`, the T/C [19] was 94 % of control, the T/C [20] was 86 % of control and 87 % of control and the T/C [11] was 87 % of control. The T/C [21] was 94 % of control, the T/C [12] was 90 % of control and the T/C [22] was 107 % of control. For the same compound, the T/C [13] was 95 % of control.

With `O=C(Cc1ccccn1)c1ccccc1` the T/C [16] was 96 % of control, the T/C [17] was 96 % of control and the T/C [18] was 92 % of control.

`Cc1ccc(-n2c(=O)c(N=Nc3ccccc3C)c(O)n(-c3ccccc3Cl)c2=S)cc1` was tested, and the T/C [14] was 104 % of control, the T/C [15] was 94 % of control and the T/C [23] was 98 % of control.

With `O=[N+]([O-])c1ccc2cnn(C[N+]34CN5CN(CN(C5)C3)C4)c2c1` the T/C (dose: 100.0 mg/kg/injection, schedule: Q01DX001 (ip), vehicle: other) was 103 % of control, the T/C (dose: 200.0 mg/kg/injection, schedule: Q01DX001 (ip), vehicle: other) was 100 % of control and the T/C (dose: 400.0 mg/kg/injection, schedule: Q01DX001 (ip), vehicle: other) was 111 % of control.

`Clc1cc(Cl)c2c(c1)COCO2` was tested, and the T/C [24] was 109 % of control, the T/C [25] was 104 % of control and the T/C [8] was 106 % of control. For the same compound, the T/C [16] was 97 % of control, the T/C [17] was 102 % of control and the T/C [18] was 111 % of control.

With `Nc1ncnc2c1ncn2C1OCC(O)C(O)C1O` (stereo not drawn) the T/C [6] was 106 % of control, the T/C [7] was 98 % of control and the T/C (dose: 400.0 mg/kg/injection, schedule: Q01DX001 (ip), vehicle: saline) was 91 % of control.

With `Cc1ccc(C(=O)NCCCOc2ccc([N+](=O)[O-])cc2Cl)cc1S(=O)(=O)F` the T/C [20] was 106 % of control, the T/C [11] was 86 % of control and the T/C [21] was 96 % of control. For the same compound, the T/C [12] was 97 % of control, the T/C [22] was 98 % of control and the T/C [13] was 103 % of control.

For `CCCCOCc1cc(CN2CCN(C)CC2)c(O)c2ncccc12`, the T/C (dose: 25.0 mg/kg/injection, schedule: Q04DX002 (ip), vehicle: saline) was 89 % of control, the T/C (dose: 50.0 mg/kg/injection, schedule: Q04DX002 (ip), vehicle: saline) was 95 % of control and the T/C [1] was 89 % of control.

With `CC(=O)OC1(c2ccc(Cl)cc2)OC(=O)C(c2ccccc2)=C1Cc1ccccc1` (stereo not drawn) the T/C (dose: 12.5 mg/kg/injection, schedule: Q01DX009 (ip), vehicle: saline with Tween-80) was 93 % of control, the T/C (dose: 25.0 mg/kg/injection, schedule: Q01DX009 (ip), vehicle: saline with Tween-80) was 86 % of control and the T/C [19] was 86 % of control. The T/C [21] was 95 % of control.

In the case of `COc1ccccc1-n1c(O)c(N=Nc2ccc(Cl)cc2)c(=O)n(-c2ccccc2OC)c1=S`, the T/C [15] was 104 % of control and the T/C [23] was 110 % of control.

For `CCCCOP(=O)(/C=C\c1ccco1)OCCCC`, the T/C [24] was 91 % of control, the T/C [25] was 97 % of control and the T/C [8] was 92 % of control. For the same compound, the T/C (dose: 100.0 mg/kg/injection, schedule: Q01DX009 (ip), vehicle: carboxymethylcellulose (CMC)) was 95 % of control.

In the case of `CC(N)(CO)C(=O)O` (stereo not drawn), the T/C [2] was 100 % of control, the T/C [3] was 105 % of control and the T/C [4] was 107 % of control.

For `O/N=C/c1nc2ccccc2s1`, the T/C [16] was 105 % of control, the T/C [17] was 91 % of control and the T/C [18] was 118 % of control.

`CCOC(=O)CNCc1cccc(Br)c1` was tested, and the T/C (dose: 50.0 mg/kg/injection, schedule: Q01DX005 (ip), vehicle: saline) was 98 % of control, the T/C (dose: 100.0 mg/kg/injection, schedule: Q01DX005 (ip), vehicle: saline) was 112 % of control and the T/C (dose: 200.0 mg/kg/injection, schedule: Q01DX005 (ip), vehicle: saline) was 102 % of control. For the same compound, the T/C (dose: 400.0 mg/kg/injection, schedule: Q01DX005 (ip), vehicle: saline) was 100 % of control.

`CCCCCCc1cccc(C)n1` was tested, and the T/C [6] was 94 % of control and the T/C [7] was 92 % of control.

With `O=[N+]([O-])c1ccccc1S(=O)(=O)/C=C/c1ccccc1` the T/C [15] was 96 % of control, the T/C [8] was 93 % of control and the T/C [16] was 100 % of control. The T/C [23] was 109 % of control, the T/C [9] was 100 % of control and the T/C [17] was 106 % of control. The T/C (dose: 400.0 mg/kg/injection, schedule: Q01DX001 (ip), vehicle: Klucel (hydroxypropylcellulose) (HPC)) was 96 % of control, the T/C [10] was 94 % of control and the T/C [18] was 101 % of control.
